This passage reports Kd results from paper PMC4843824 (Nature chemistry, 2016).

Common to all, as to assay: differential UV-vis titration
Assay [1] deals with T1, TxtE (Streptomyces scabiei, UniProt C9ZDC6, H176Y).
T1 sequence (C9ZDC6 1-406 H176Y): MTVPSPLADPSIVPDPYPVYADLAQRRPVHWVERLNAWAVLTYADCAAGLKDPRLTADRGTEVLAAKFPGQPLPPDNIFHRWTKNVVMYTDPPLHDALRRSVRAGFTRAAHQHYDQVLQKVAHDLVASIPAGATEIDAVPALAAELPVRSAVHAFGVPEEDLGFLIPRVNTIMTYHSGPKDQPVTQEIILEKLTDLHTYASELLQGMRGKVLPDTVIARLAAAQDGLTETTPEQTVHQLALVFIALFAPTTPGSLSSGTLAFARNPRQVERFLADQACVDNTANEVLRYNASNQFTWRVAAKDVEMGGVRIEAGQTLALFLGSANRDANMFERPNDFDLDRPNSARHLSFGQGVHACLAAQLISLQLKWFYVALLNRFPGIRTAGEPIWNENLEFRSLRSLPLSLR
Type of assay: binding.

For assay [2], the target named is T2, TxtE (Streptomyces scabiei, UniProt C9ZDC6, H176F).
T2 sequence (C9ZDC6 1-406 H176F): T1 sequence (C9ZDC6 1-406 H176Y)
It counts as binding.

Assay [3] has as its target T3, TxtE (Streptomyces scabiei, UniProt C9ZDC6, H176W).
T3 sequence (C9ZDC6 1-406 H176W): T1 sequence (C9ZDC6 1-406 H176Y)
Type of assay: binding.

In the next assay the target is Virginiae_TxtE. It counts as binding, Streptomyces virginiae. The conditions noted are these: read-out: Kd (μM)^b; 25 mM Tris pH 8.

The structures appear in SMILES notation.

For `N[C@@H](Cc1c[nH]c2ccccc12)C(=O)O` [L-tryptophan], the Kd (commonly a measure of binding affinity in units of concentration) on TxtE [1] worked out at 4.9 ± 0.3 µM; at TxtE [2], 2.6 ± 0.1 µM; at TxtE [3], 1.3 ± 0.1 µM; at Virginiae_TxtE, 140 ± 6 µM.
